Data reported in the supplement of paper PMC13207355.

What was measured:
Conditions in all cases: exposure time: 72 h
[1] = system: E28 (patient-derived glioblastoma stem cells of classical subtype); experiment: surviving fraction (nuclei count normalised to DMSO); higher = more cells surviving (less toxic)
[2] = system: E34 (patient-derived glioblastoma stem cells of proneural subtype); experiment: as above
[3] = system: E13 (patient-derived glioblastoma stem cells of classical subtype); experiment: as above
[4] = system: E21 (patient-derived glioblastoma stem cells of mesenchymal subtype); experiment: as above
[5] = system: FT3469 (normal neural stem cell line); experiment: as above
[6] = system: E57 (patient-derived glioblastoma stem cells of mesenchymal subtype); experiment: as above
[7] = system: E28; experiment: phenotypic distance (Euclidean, principal components) from DMSO controls (arbitrary units); higher = stronger morphological change
[8] = system: E34; experiment: as above
[9] = system: E13; experiment: as above
[10] = system: E21; experiment: as above
[11] = system: FT3469; experiment: as above
[12] = system: E57; experiment: as above
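For phenotypic distance (Euclidean, principal components) from DMSO controls in this document: cell Painting imaging in 384-well plates, CellProfiler features reduced to at least 20 principal components, Euclidean distance versus same-plate DMSO vehicle wells (0.1% v/v), median over six images per well.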
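For surviving fraction (nuclei count normalised to DMSO) in this document: nuclei counted by high-content imaging of Hoechst-stained cells in laminin-coated 384-well plates, relative to 0.1% DMSO vehicle wells, with staurosporine as cell-death control.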

CC(C)C[C@H](NC(=O)[C@H](Cc1ccccc1)C[C@@H](O)[C@H](Cc1ccccc1)NC(=O)OC(C)(C)C)C(=O)N[C@@H](Cc1ccccc1)C(N)=O [L-685,458]
Conditions	phenotypic distance	surviving fraction
[1], 4.1 nM	–	0.997
[1], 4.11523 nM	–	1.1
[1], 12.3 nM	–	1.15
[1], 12.34567901 nM	–	0.885
[1], 37 nM	–	0.825
[1], 37.037 nM	–	1.02
[1], 111.1 nM	–	1.11
[1], 111.1111111 nM	–	0.813
[1], 333.3 nM	–	0.795
[1], 333.333 nM	–	1.02
[1], 1000 nM	–	0.858
[1], 3000 nM	–	0.834
[2], 4.1 nM	–	0.787
[2], 4.11523 nM	–	0.957
[2], 12.3 nM	–	1.02
[2], 12.34567901 nM	–	0.895
[2], 37 nM	–	0.964
[2], 37.037 nM	–	1.09
[2], 111.1 nM	–	0.946
[2], 111.1111111 nM	–	0.976
[2], 333.3 nM	–	0.746
[2], 333.333 nM	–	1.15
[2], 1000 nM	–	1
[2], 3000 nM	–	0.924
[3], 4.1 nM	–	1.06
[3], 4.11523 nM	–	1.16
[3], 12.3 nM	–	1.04
[3], 12.34567901 nM	–	1.1
[3], 37 nM	–	1.01
[3], 37.037 nM	–	0.999
[3], 111.1 nM	–	1.18
[3], 111.1111111 nM	–	1.01
[3], 333.3 nM	–	1.02
[3], 333.333 nM	–	1.09
[3], 1000 nM	–	1.14
[3], 3000 nM	–	1.01
[4], 4.1 nM	–	0.96
[4], 4.11523 nM	–	0.891
[4], 12.3 nM	–	0.969
[4], 12.34567901 nM	–	0.958
[4], 37 nM	–	0.95
[4], 37.037 nM	–	0.941
[4], 111.1 nM	–	1.03
[4], 111.1111111 nM	–	1.03
[4], 333.3 nM	–	0.861
[4], 333.333 nM	–	1.04
[4], 1000 nM	–	1.05
[4], 3000 nM	–	0.948
[5], 4.1 nM	–	0.944
[5], 4.11523 nM	–	0.979
[5], 12.3 nM	–	1.02
[5], 12.34567901 nM	–	0.858
[5], 37 nM	–	0.9
[5], 37.037 nM	–	1.03
[5], 111.1 nM	–	0.901
[5], 111.1111111 nM	–	0.984
[5], 333.3 nM	–	0.882
[5], 333.333 nM	–	0.884
[5], 1000 nM	–	0.867
[5], 3000 nM	–	0.838
[6], 4.1 nM	–	1.04
[6], 4.11523 nM	–	0.963
[6], 12.3 nM	–	0.967
[6], 12.34567901 nM	–	0.988
[6], 37 nM	–	0.958
[6], 37.037 nM	–	0.998
[6], 111.1 nM	–	1.01
[6], 111.1111111 nM	–	1.03
[6], 333.3 nM	–	1.08
[6], 333.333 nM	–	0.989
[6], 1000 nM	–	1.04
[6], 3000 nM	–	1
[7], 4.1 nM	0.474	–
[7], 4.11523 nM	0.565	–
[7], 12.3 nM	0.894	–
[7], 12.34567901 nM	0.663	–
[7], 37 nM	0.847	–
[7], 37.037 nM	0.502	–
[7], 111.1 nM	0.482	–
[7], 111.1111111 nM	0.958	–
[7], 333.3 nM	0.937	–
[7], 333.333 nM	0.39	–
[7], 1000 nM	0.79	–
[7], 3000 nM	0.756	–
[8], 4.1 nM	1.11	–
[8], 4.11523 nM	0.526	–
[8], 12.3 nM	0.954	–
[8], 12.34567901 nM	0.619	–
[8], 37 nM	0.627	–
[8], 37.037 nM	0.56	–
[8], 111.1 nM	0.75	–
[8], 111.1111111 nM	0.762	–
[8], 333.3 nM	1.1	–
[8], 333.333 nM	0.452	–
[8], 1000 nM	0.948	–
[8], 3000 nM	1.12	–
[9], 4.1 nM	0.562	–
[9], 4.11523 nM	0.913	–
[9], 12.3 nM	0.877	–
[9], 12.34567901 nM	0.727	–
[9], 37 nM	0.594	–
[9], 37.037 nM	0.991	–
[9], 111.1 nM	0.891	–
[9], 111.1111111 nM	2.26	–
[9], 333.3 nM	0.794	–
[9], 333.333 nM	0.929	–
[9], 1000 nM	1.66	–
[9], 3000 nM	0.881	–
[10], 4.1 nM	0.782	–
[10], 4.11523 nM	0.593	–
[10], 12.3 nM	0.577	–
[10], 12.34567901 nM	0.764	–
[10], 37 nM	0.535	–
[10], 37.037 nM	0.752	–
[10], 111.1 nM	0.68	–
[10], 111.1111111 nM	0.628	–
[10], 333.3 nM	0.73	–
[10], 333.333 nM	0.786	–
[10], 1000 nM	0.724	–
[10], 3000 nM	0.836	–
[11], 4.1 nM	0.822	–
[11], 4.11523 nM	0.544	–
[11], 12.3 nM	0.633	–
[11], 12.34567901 nM	0.898	–
[11], 37 nM	0.582	–
[11], 37.037 nM	0.598	–
[11], 111.1 nM	1.41	–
[11], 111.1111111 nM	0.791	–
[11], 333.3 nM	0.871	–
[11], 333.333 nM	0.681	–
[11], 1000 nM	0.906	–
[11], 3000 nM	1.06	–
[12], 4.1 nM	0.808	–
[12], 4.11523 nM	1.06	–
[12], 12.3 nM	1.19	–
[12], 12.34567901 nM	0.938	–
[12], 37 nM	1.05	–
[12], 37.037 nM	0.959	–
[12], 111.1 nM	1.22	–
[12], 111.1111111 nM	0.783	–
[12], 333.3 nM	0.893	–
[12], 333.333 nM	1.03	–
[12], 1000 nM	1.1	–
[12], 3000 nM	1.07	–
